According to article PMC6832134, “Discovery of Novel Integrase Inhibitors Acting outside the Active Site Through High-Throughput Screening” (Molecules, 2019):
Like-named read-outs stand apart in the source and are kept apart here.

How the values were obtained:
HIV-1 = test system: HIV-1; design: method as in http://dtp.nci.nih.gov, [7]; conditions: ref http://dtp.nci.nih.gov, [7]; cited from earlier work
[1] = molecular target: T1, isolated C-terminal domain (CTD) (220–288) (Human immunodeficiency virus type 1 group M subtype B, UniProt P12497); assay: Schiff base IN-DNA crosslinking assay, isolated CTD; type: binding, HIV-1
T1 construct: the isolated C-terminal domain (CTD) (220–288); made in house; host or cells: E. coli RosettaII
Excerpt: To gain further evidence that NSC34931 interferes with DNA binding, and to determine the role of outer domains in this inhibition, we evaluated the ability of NSC34931 to inhibit the formation of IN-DNA crosslinks using our previously described Schiff base assay. Briefly, a deoxyuracyl nucleotide is incorporated in the DNA substrate to generate an abasic site via uracyl DNA glycosylase. IN forms a covalent complex (Schiff base), which can be stabilized by reduction with sodium borohydride (Figure 5A). Full-length IN, but also the isolated CCD or CTD domains, can crosslink DNA ([…]). Consistent with anisotropy data, NSC34931 suppresses the formation of IN-DNA crosslinks in the context of the full-length IN (Figure 5B, upper gel). Of note, the effective dose to inhibit this reaction is similar to that needed to inhibit 3′-P or ST (about 0.45 µM). In contrast, the IN CCD requires a 10 times higher concentration of compound to prevent DNA crosslinking, confirming that the NTD or the CTD are important for NSC34931 inhibition. Lastly, the same experiment was conducted with the isolated CTD (Figure 5B, lower gel).
Figure 5 Inhibition of IN-DNA binding by NSC34931. (A) Principle of the Schiff base crosslinking assay. An abasic site was introduced by uracil DNA glycosylase in the DNA substrate at the -12 position. […]

HIV-1 IN (WT) = molecular target: T2, HIV-1 IN (WT) (Human immunodeficiency virus type 1 group M subtype B, UniProt P12497); assay: Gel-based IN strand transfer assay, WT enzyme; type: biochemical
T2 construct: 250 nM of recombinant HIV-1 integrase; made in house; host or cells: E. coli RosettaII
Protocol: (§1) IN reactions were carried out by adding drugs or an equivalent volume of 100% DMSO (dimethyl sulfoxide, used as the drug solvent) to a mixture of 20 nM duplex DNA (21T/21B) and 400 nM IN in 50 mM MOPS pH 7.2, 7.5 mM MgCl2, and 14 mM 2-mercaptoethanol. Reactions were performed at 37 °C for 2 h and quenched by addition of an equal volume of loading buffer [formamide containing 1% SDS (sodium dodecyl sulfate), 0.25% bromophenol blue, and xylene cyanol]. Reaction products were separated in 16% polyacrylamide denaturing sequencing gels. Dried gels were visualized using a Typhoon 8600 (GE Healthcare, Piscataway, NJ, USA). Densitometric analyses were performed using the ImageQuant 5.1 software from GE Healthcare. Data analyses (linear regression, IC50 determination, and standard deviation) were performed using Prism 6.05 software from GraphPad.

[2] = molecular target: T3, HIV-1 IN mutant G140S/Q148H (Human immunodeficiency virus type 1 group M subtype B, UniProt P12497, G1287S/Q1295H); assay: Gel-based IN strand transfer assay, G140S/Q148H mutant; type: biochemical
T3 construct: RAL-resistant HIV-1 mutant integrases; made in house; host or cells: E. coli RosettaII
Protocol: as §1

HIV-1 IN = molecular target: T4, HIV-1 IN (Human immunodeficiency virus type 1 group M subtype B, UniProt P12497); assay: Gel-based IN 3'-processing assay; type: biochemical; conditions: at least three independent experiments, read-out: In Vitro IC50 +/−SD, 3'-P
T4 construct: 250 nM of recombinant HIV-1 integrase; made in house; host or cells: E. coli RosettaII
Protocol: as §1

HIV-1 IN mutant Y143R = molecular target: T5, HIV-1 IN mutant Y143R (Human immunodeficiency virus type 1 group M subtype B, UniProt P12497, Y1290R); assay: Gel-based IN strand transfer assay, Y143R mutant; type: biochemical
T5 construct: RAL-resistant HIV-1 mutant integrases; made in house; host or cells: E. coli RosettaII
Protocol: as §1

full-length IN = molecular target: T6, full-length IN (Human immunodeficiency virus type 1 group M subtype B, UniProt P12497); assay: Disintegration reaction, full-length IN; type: biochemical, HIV-1; conditions: branched substrate
T6 construct: using full-length IN (1–288), the isolated catalytic core domain (CCD) (51–212); made in house; host or cells: E. coli RosettaII
Excerpt: Conventional IN strand transfer inhibitors bind at the interface created by the protein, viral DNA, and two magnesium cations in the catalytic site of the enzyme. Because stilbene disulfonic acid derivatives inhibit both 3′-P and ST with a similar efficiency, they may act outside the IN catalytic site. To determine if IN domains other than the catalytic core domain (CCD) are involved in the inhibitory activity of NSC34931, we tested this compound on disintegration, the only IN-mediated reaction that can be catalyzed by the isolated CCD. Disintegration is equivalent to a reverse-ST reaction (Figure 3A). Using a branched substrate, the WT enzyme as well as the isolated CCD catalyzed disintegration with similar efficiency (Figure 3B). NSC34931 inhibited disintegration catalyzed by the full-length IN at concentrations above 4.1 µM (Figure 3B,C). However, NSC34931 was unable to inhibit disintegration catalyzed by the CCD at concentrations up to 37 µM (Figure 3B,C). These experiments indicate that the N-terminal domain (NTD) and/or the C-terminal domain (CTD) are essential for IN inhibition by NSC34931.
Figure 3 Inhibition of the disintegration reaction by NSC34931. (A) Schematic representation of the disintegration reaction. […]

Compound: O=S(=O)(O)c1cc(/N=N/c2cc(S(=O)(=O)O)c3ccccc3c2O)ccc1/C=C/c1ccc(/N=N/c2cc(S(=O)(=O)O)c3ccccc3c2O)cc1S(=O)(=O)O [NSC34931]
- antiviral activity in HIV-1 cytopathic assay (HIV-1): antiviral
- inhibition of CTD-DNA crosslinks [1]: in the same concentration range than in the context of the full-length enzyme
- activity with Mg2+ or Mn2+ as metal cofactor (HIV-1 IN (WT); data not shown): equally active
- IC50 (HIV-1 IN (WT); gel-based assay, coupled ST, at least three independent experiments, read-out: In Vitro IC50 +/−SD, ST): 180 ± 70 nM
- IC50 (HIV-1 IN (WT); precleaved substrate (bypassing the 3'-P step), data not shown, read-out: IC50, ST inhibition with precleaved substrate): 230 nM
- IC50 [2]: 120 nM
- IC50 (HIV-1 IN): 320 ± 120 nM
- IC50 (HIV-1 IN mutant Y143R): 240 nM
- concentrations inhibiting disintegration (full-length IN): above 4.1 µM
